Source: patent publication US20160281125A1, “ANTIMICROBIAL COMPOUND SUSCEPTIBILITY TEST” (priority 2013, published 2016)

Tests used:
E. coli ESBL 790 = experiment: Selective lysis test, OD600 turbidity (Example 1); type: cell-based, Escherichia coli
Description: (§1) An isolated colony from an overnight Tryptocase Soy Agar (TSA) plate of each bacterial strain was suspended in 1 ml Tryptocasc Soy Broth (TSB) in a 5 ml BD polystyrene round bottom tube. TSB cultures were incubated shaking at 37° C. overnight. Ten of the overnight culture was inoculated into lml TSB and incubated shaking at 37° C. for three hours. Two […] aliquots of each log-phase culture were then transferred to two 2 ml Eppendorf microcentrifuge tubes. One tube contained 5000 of Normal Saline (BD); the second tube contained 5000 Normal Saline with meropenem at 10 μg/ml (final concentration of meropenem of 6.67 10 μg/ml). Tubes were inverted and then incubated at 37° C. stagnant for thirty minutes. Then […] of lysis buffer (0.5% SDS in PSB) (final concentration of SDS of 0.125%) was added to each tube and the tubes were vortexed for 5 seconds. Post incubation, all tubes were spun at 10000 G for 5 minutes. Supernatant was decanted and the pellet resuspended in Normal Saline. Tubes were vortexed again. OD600 was measured using Eppendorf uvettes in a spectrophotometer. The delta between the OD600 of the normal saline control and the OD600 for the test sample exposed to meropenem in normal saline was used to determine susceptibility of the bacterial strain to meropenem.

E. coli 35218 = experiment: Selective lysis test, OD600 turbidity (Example 1); type: cell-based, Escherichia coli
Description: as §1

E. coli 25922 = experiment: Selective lysis test, OD600 turbidity (Example 1); type: cell-based, Escherichia coli
Description: as §1

E. coli JM109 = experiment: Selective lysis test, OD600 turbidity (Example 1); type: cell-based, Escherichia coli
Description: as §1

E. coli ESBL Baa197 = experiment: Selective lysis test, OD600 turbidity (Example 1); type: cell-based, Escherichia coli; conditions: for % Change: OD600 vs control without meropenem
Description: as §1

E. coli 23848 = experiment: Selective lysis test, OD600 turbidity (Example 1); type: cell-based, Escherichia coli
Description: as §1

E. coli 51422 = experiment: Selective lysis test, OD600 turbidity (Example 1); type: cell-based, Escherichia coli
Description: as §1

[1] = tested on: strains previously considered resistant to meropenem; experiment: Selective lysis OD600 test, summary over the strains of Table 2; type: cell-based, Klebsiella pneumoniae, Klebsiella oxytoca; conditions: 8 of the 9 strains of Table 2
Description: as §1, with “meropenem. […]” for “meropenem.”

K. oxy strain 43086 = experiment: Selective lysis test, BacUni QuickFISH staining (Example 3); type: cell-based, K. oxytoca; conditions: FIG. 4; K. oxy 43086; meropenem 10 μg/ml, 30 min, SDS lysis
From the text: An alternative to the spectrophotometer-based measurement of changes in turbidity for measuring cell lysis following treatment with the cell lysis conditions in Examples 1 and 2 is to stain samples using a stain that distinguishes between intact cells and lysed cells. In this example staining with BacUni QuickFISH™ was used to identify intact (i.e., non-lysed) cells. BacUN1 is a universal bacteria PNA probe that binds to an rRNA sequence present in most Gram-positive and Gram-negative bacteria. The PNA probe binds to universal rRNA in intact bacterial cells and the entire cell will appears green with fluorescent microscopy. If the bacterial cell had been lysed then the rRNA target would have been released from the bacterial cell and even of somewhat labeled it would not appear as a fluorescent bacterial cell.
An isolated colony from an overnight Tryptocase Soy Agar (TSA) plate of each bacteria was suspended in 1 ml Tryptocase Soy Broth (TSB) in a 5 ml BD polystyrene round bottom tube. TSB cultures were incubated at 37° C. overnight. Ten μl of overnight culture was inoculated into 1 ml TSB and incubated shaking at 37° C. for three hours. Two 250 μl aliquots of each log-phase culture was transferred to two 2 ml Eppendorf microcentrifuge tubes. […] The slide was viewed on fluorescence microscope using 60× oil immersion on Dual TxR/FITC. […]

E. aero 13048 = experiment: Selective lysis test, OD600 turbidity (Example 1); type: cell-based, Enterobacter aerogenes
Description: as §1

K. oxy 43086 = experiment: Selective lysis test, OD600 turbidity (Example 1); type: cell-based, Klebsiella oxytoca
Description: as §1

[2] = OD600 vs control without meropenem
[3] = meropenem 10 μg/ml, 30 min, SDS lysis buffer + vortex

C[C@@H](O)[C@H]1C(=O)N2C(C(=O)O)=C(S[C@@H]3CN[C@H](C(=O)N(C)C)C3)[C@H](C)[C@H]12 [meropenem]
R or S (E. coli ESBL 790): S (a percentage change of greater than about 85% indicates a strain is susceptible) | % Change (E. coli ESBL 790; [2]): 87% | Mero OD600 (E. coli ESBL 790; [3]): 0.126 | R or S (E. coli 35218): S (a percentage change of greater than about 85% indicates a strain is susceptible) | % Change (E. coli 35218; [2]): 90% | Mero OD600 (E. coli 35218; [3]): 0.1 | R or S (E. coli 25922): S (a percentage change of greater than about 85% indicates a strain is susceptible) | % Change (E. coli 25922; [2]): 97% | Mero OD600 (E. coli 25922; [3]): 0.064 | R or S (E. coli JM109): S (a percentage change of greater than about 85% indicates a strain is susceptible) | % Change (E. coli JM109; [2]): 88% | Mero OD600 (E. coli JM109; [3]): 0.079 | R or S (E. coli ESBL Baa197): S (a percentage change of greater than about 85% indicates a strain is susceptible) | % Change (E. coli ESBL Baa197): 74% | % Change (E. coli ESBL Baa197; listed as Mero): 74% | Mero OD600 (E. coli ESBL Baa197; [3]): 0.236 | R or S (E. coli 23848): S (a percentage change of greater than about 85% indicates a strain is susceptible) | % Change (E. coli 23848; [2]): 97% | Mero OD600 (E. coli 23848; [3]): 0.021 | R or S (E. coli 51422): S (a percentage change of greater than about 85% indicates a strain is susceptible) | % Change (E. coli 51422; [2]): 98% | Mero OD600 (E. coli 51422; [3]): 0.031 | decrease of OD600 turbidity vs negative control [1]: ≤ 18% | number of BacUni QuickFISH stained cells, treated vs not treated (K. oxy strain 43086): significant reduction in the number of stained cells | R or S (E. aero 13048): S (a percentage change of greater than about 85% indicates a strain is susceptible) | % Change (E. aero 13048; [2]): 97% | Mero OD600 (E. aero 13048; [3]): 0.077 | R or S (K. oxy 43086): S (a percentage change of greater than about 85% indicates a strain is susceptible) | % Change (K. oxy 43086; [2]): 99% | Mero OD600 (K. oxy 43086; [3]): 0.02
